This is an account of results in US12220391B2, “Compositions and methods of use of β-hydroxy-β-methylbutyrate (HMB) for modulating autophagy and lipophagy” (Metabolic Technologies, LLC, priority 2016, dated 2025).

For data set [1] the following is noted: compared with CaHMB; cited from earlier work.
The subject of another data set is ATG7. As to the kind of experiment: ATG7 gene expression (qPCR) in primary human skeletal muscle myotubes. The class given is cell-based. To be noted: HMB 1 mM, 4 days, HSMM myotubes, qPCR normalized to 36B4, n=6. The protocol: Cultured primary human skeletal muscle cells (HSMM, Lonza) were grown to confluence and differentiated into myotubes. The cells were then supplemented with HMB (1 mM) for 4 days (n=6 for treatment or control groups) with a medium change every other day. Gene expression (mRNA) was determined at the end of the treatment by quantitative polymerase chain reaction (qPCR). For normalization, the mRNA signal was adjusted to the co-amplified signal of the ribosomal protein 36B4.
(In general: In qPCR the cycle at which signal appears reflects the starting amount.)

Data set [2] deals with differentiated adipocytes. Description: Lipolysis in differentiated adipocytes. The class given is cell-based. As to conditions: pretreated 48 hours with 1 mM HMB; basal and 1 uM isoproterenol; n=4. How it is done: (§1) Differentiated adipocytes were treated with HMB in regular growth medium for determination of lipolysis and gene expression. The adipocytes were pretreated for 48 hours with 1 mM HMB (n=4), resulting in basal and 1 uM isoproterenol stimulated lipolysis (FIG. 3A).

Data set [3] deals with adipose triglyceride lipase (ATGL). As to the kind of experiment: ATGL gene expression in differentiated adipocytes. The class given is cell-based. As to conditions: HMB, 96 hours, n=6, p<0.05. The protocol: as §1
Data set [4] has as its system autophagy related protein (ATG7). As to the kind of experiment: ATG7 gene expression in differentiated adipocytes. In kind it is cell-based. To be noted: HMB, 96 hours, n=6, p<0.05. How it is done:
as §1

Data set [5] concerns AMPK. As to the kind of experiment: AMPK activation (phosphorylated AMPK substrates, total AMPK) in primary human adipocytes. The class given is cell-based. As to conditions: 1 mM HMB, 96 hours. How it is done: A line of subcutaneous preadipocytes isolated from normal humans (non-diabetic controls) was used. These cells differentiate well (see FIG. 4) and provide a good in vitro model for studying effects of HMB on lipophagy. […] Differentiated adipocytes (14 days post confluence) were treated for 4 days with 1 mM HMB supplemented in normal growth medium. Lysates were probed with an antibody (Cell Signal Technologies) directed against AMPK phosphorylated substrates (consensus motif LCRXXpS/pT) to obtain a broad evaluation of AMPK activation and total AMPK levels were also measured. […] The cells were lysed and probed for phosphorylated targets of AMPK and for total AMPK levels (FIG. 5B).

Data set [6] deals with AMPK. Description: AMPK activation in HEK293 cells. In kind it is cell-based. As to conditions: similarly treated HEK293 cells (data not shown).
The subject of a further data set is BNIP3. Description: BNIP3 gene expression in human primary adipocytes. In kind it is cell-based. To be noted: 1 mM HMB, 96 hours, n=3, p<0.05. The text has this:
(§2) These transcription factors represent two different autophagy pathways.

The next data set concerns TFEB. As to the kind of experiment: TFEB gene expression in human primary adipocytes. In kind it is cell-based. To be noted: 1 mM HMB, 96 hours, n=3, p<0.05.
Excerpt: as §2

For the next data set, the system named is Primary preadipocytes. Description: Dual-labeled LC3 (DsRed/GFP) imaging of autophagy in primary preadipocytes. The class given is cell-based. As to conditions: 1 mM HMB, 4 days. The protocol:
A primary adipocyte cell based assay for visualizing HMB activated lipophagy was developed. Primary preadipocytes were cultured on glass coverslips and treated with HMB for four days in regular growth medium. Cells were fixed and mounted with DAPI-containing medium and imaged with 60× objective. Autophagy vesicles are in red with degradation of green signal indicative of autophagy activation (FIG. 7). Nuclei are stained in blue (FIG. 7). A dual-labeled LC3 retroviral expression contrast was used to generate recombinant retrovirus using 293GPG cells. Primary preadipocytes were infected with the viral particles and, starting with four days after infection, selected with geneticin for two weeks prior to the imaging experiments. The LC3 fusion construct labels the autophagosomes and harbors dual signals; DsRed and GFP green probes. In the basal state there is co-localization of the green and red signals resulting in a yellow signal in the merged panel (FIG. 7 top panel with no HMB). When autophagy is activated, the GFP probe is cleaved from LC3 by ATG4 and degraded resulting in loss of the green signal and in absence of the co-localization in the merged panel. The initial studies used preadipocytes infected with the LC3 containing retrovirus and treated or not treated for 4 days with 1 mM HMB (FIG. 7, top: no HMB, bottom +HMB).

Another data set concerns adipocytes (SGBS). As to the kind of experiment: Phosphor protein array, SGBS adipocytes. To be noted: HMB-treated SGBS adipocytes. The class given is cell-based. The protocol:
(§3) Lysates from HMB-treated muscle (HSMM) and adipocytes (SGBS) were analyzed using a phosphor protein array. Many mTOR targets were regulated in both cell system (FIG. 8). Increases in CREB phosphorylation on serine 133 on a signaling protein array using SGBS adipocytes treated HMB was seen (FIG. 8). Thus, the activating phosphorylation of CREB at S133 mediates induction of TFEB in these adipocytes and this pathway results in the upregulation of autophagy.

Another data set has as its system muscle cells (HSMM). Description: Phosphor protein array, HSMM muscle cells. The class given is cell-based, human. To be noted: HMB-treated HSMM muscle cells. The protocol:
as §3

The conditions of data set [7]: after HMB is fed; cited from earlier work.
Data set [8] has as its system plasma CPK (creatine phosphokinase). As to conditions: following intense exercise, within the first 48 hrs of supplementation; cited from earlier work.
For data set [9] the following is noted: healthy young or old adults; cited from earlier work.
Another data set deals with mTOR. To be noted: in vitro, through mTOR phosphorylation; cited from earlier work.
The test system of data set [10] is ubiquitin-proteosome proteolytic pathway. To be noted: muscle protein catabolism stimulated by PIF, LPS and angiotensin II; cited from earlier work.
For data set [11], the system named is caspases-3 and -8 proteases. To be noted: cited from earlier work.

Regarding `CC(C)(O)CC(=O)O` [HMB free acid, β-hydroxy-β-methylbutyric acid], in data set [1], the absorption entry was “absorbed quicker” and the tissue clearance entry is on record as “greater tissue clearance”.

With `CC(C)(O)CC(=O)O` [HMB, β-hydroxy-β-methylbutyric acid], the “ATG7 gene expression (mRNA)” value in the data set on ATG7 is given as “Significant (p<0.01) upregulation”. Further, the “lipolysis (basal and isoproterenol stimulated)” value in [2] is reported as “activates”. Also, the ATGL gene expression entry in data set [3] is listed as “significantly increased”. Besides, in data set [4], the ATG7 gene expression result was “significantly increased”. Also, the “total AMPK levels” value in the data set on AMPK [5] is “not significantly changed”. Further, in the data set with AMPK [5] (densitometry, n=3, p<0.01), the “AMPK substrate phosphorylation intensity” value was “significant increase”. The “AMPK substrate phosphorylation increase” value in the data set with AMPK [6] was “not observed”. Besides, in the data set with BNIP3, the “BNIP3 mRNA levels” value was “increased”. Also, the “TFEB mRNA levels” value in the data set with TFEB is “increased”. Also, the “size of autophagic puncta” value in the data set on Primary preadipocytes is recorded as “significant increases”. Besides, in the data set on Primary preadipocytes (preadipocytes infected with LC3 retrovirus), the “LC3 GFP green signal and green/red co-localization” value was “Loss of green signals and absence of green/red co-localization”. In the data set with adipocytes (SGBS), the “CREB phosphorylation (serine 133)” value is given as “enhanced”, the HSP27 phosphorylation result was “enhanced”, the Yes kinase phosphorylation entry is “Enhanced” and the “activation of p53” value is “Reduced activation”. In the data set on adipocytes (SGBS), the “activation of pSTAT3” value is on record as “Reduced activation” and the “activity of the mTOR pathway” value was “Reduced activity”. Moreover, in the data set with muscle cells (HSMM), the “RSK 1/2/3 phosphorylation at the mTOR site (S473)” value is “significant reduction”, the “activation of STAT3” value is reported as “reduced activation”, the “activation of p53” value is “reduced activation” and the mTOR activity entry is “inhibition”. In addition, in the data set with muscle cells (HSMM), the “p70 S6 kinase phosphorylation at several threonine p-sites” value is “significant reduction”. Besides, the “loss of HMB to urine” value in data set [7] is reported as 20-50%. Further, the “muscle damage measured by elevated plasma CPK” value in [8] is “reduced”. Further, the side effects result in data set [9] is “no side effects”. Moreover, the protein synthesis entry with mTOR was “stimulates”. In data set [10], the proteolysis result is on record as “decreases”. For the same compound, the “activation of caspases-3 and -8 proteases” value in data set [11] is listed as “attenuates”.
